Laboratory results reported in patent EP1258248A2, “Tumor treatments comprising a fumagillol derivative and a further antineoplastic agent” (TAP Pharmaceutical Products, Inc., priority 2001, dated 2002).
Like-named read-outs stand apart in the source and are kept apart here.

Key:
metastatic cancer = assay: Phase I clinical study of continuously infused TNP-470 with paclitaxel and carboplatin (Example 3); format: in vivo, human; details: TNP-470 2.5-10 mg/m^2 continuous infusion with or without 60 on Day 1 + 200-225 mg/m^2 paclitaxel; carboplatin AUC 5-6; 20 patients (different cancers)
Description: Twenty adult patients with metastatic cancer, including patients with lung cancer, were treated with TNP-470, using repeated continuous administrations of low doses (2.5-10 mg/m^2 over five days in combination with paclitaxel at doses of 200-225 mg/m^2 and carboplatin at a dose of AUC 5 or AUC 6 (as explained in Example 2 above) reported in row 7 of Table 1 above.
In this study, paclitaxel was administered first, followed by the carboplatin, then by TNP-470 administered intravenously via portable continuous infusion syringe pump (available from Sims-Deltec) at a dose of 2.5 -10 mg/m^2 for five days (115-120 hours). The five-day TNP-470 infusion was repeated every week.
In an ongoing cohort of this study, in addition to the described therapy, nine patients received 60 mg/m^2 TNP-470 as a one-hour intravenous infusion after infusion of paclitaxel and prior to infusion of carboplatin. This high-dose one-hour TNP-470 infusion was administered only when paclitaxel and carboplatin were administered.

[1] = test system: advanced or metastatic cancer; assay: Phase I clinical study of intermittent TNP-470 with paclitaxel and carboplatin at a dose of AUC 6 (Example 2)
Description: Doses of TNP-470 and paclitaxel were modified as described below.
Twenty adult patients with advanced or metastatic cancer, were treated with TNP-470 (synthesized according to the procedure of U.S. Patent No. 5,180,738) in a liquid cyclodextrin-containing formulation using repeated administrations of a high dose (60 mg/m^2) given over one hour, combined with 225 mg/m^2 paclitaxel given over three hours. Carboplatin was given at doses calculated to provide an "area-under-the-curve (AUC)" exposure of 5 or 6 mg/mL/min (hereinafter referred to as "a dose of AUC 5" or "a dose of AUC 6"), according to the formula Dose (mg) = AUC x (glomerular filtration rate + 25) [formula] as described in the package insert for carboplatin. Glomerular filtration rate was estimated by creatinine clearance, either measured or calculated from the patient's age, weight, gender and serum creatinine according to the Cockcroft-Gault equation Cr CL = ((140-age) x weight (kg)/72 x serum creatinine) x 1.0 if male or 0.85 if female [formula]
In this study, paclitaxel was administered first, followed one hour later by TNP-470, then finally by the carboplatin. TNP-470 administrations were repeated up to three thimes per week. Paclitaxel and carboplatin administrations were repeated every three weeks as the patients' condition permitted. Anti-emetic therapy and prophylaxis against paclitaxel hypersensitivity were administered in accordance with the paclitaxel package insert on days when paclitaxel and carboplatin were administered.
The patients' tumors were measured at the start of the study, after six to eight weeks of therapy, and at two-month intervals thereafter. Patients continued to receive TNP-470 until tumors grew by 50% or they experienced adverse events.
Three patients, all with non-small cell lung cancer, received TNP-470 in combination with paclitaxel and carboplatin (a dose of AUC 5).

lung cancer [2] = assay: Phase I clinical study of intermittent TNP-470 combined with paclitaxel (Example 1), lung cancer patients; format: in vivo, human
Description: (§1) TNP-470 administrations were repeated up to three times per week.
(§2) In the table, "response" refers to the percentage of patients whose tumor shrank by more than fifty percent; and "time to progression" refers to the median value of the length of time between the first dose of drug and observation that the tumor has grown by more than fifty percent, or that new tumors have appeared. Patients who stop taking the drug for other reasons are considered lost to follow-up for "time to progression" calculations. "Survival" in the table is a median value.

[3] = test system: advanced or metastatic cancer; assay: Phase I clinical study of intermittent TNP-470 combined with paclitaxel (Example 1), all patients; format: in vivo, human; details: TNP-470 20-60 mg/m^2 + 135-225 mg/m^2 paclitaxel; 32 patients (different cancers)
Description: as §1, §2

[4] = test system: non-small cell lung cancer; assay: Phase I clinical study of intermittent TNP-470 with paclitaxel and carboplatin at a dose of AUC 5 (Example 2); format: in vivo, human
lung cancer [5] = details: no TNP-470, lung cancer historical data, cited from earlier work
[6] = TNP-470 60 mg/m^2 + 225 mg/m^2 paclitaxel, carboplatin AUC 6, 14 patients (different cancers)
[7] = TNP-470 20-60 mg/m^2 + 135-225 mg/m^2 paclitaxel, 15 patients (lung cancer only), median

SMILES | Responses (percentage) (metastatic cancer) | tolerability of the combined therapy ([1]; TNP-470 60 mg/m^2 + 225 mg/m^2 paclitaxel + carboplatin at a dose of AUC 6, variety of different cancers, prior chemotherapy) | Survival (months) [1, 6] | Time to Progression (months) [1, 6] | Responses (percentage) ([1]; TNP-470 60 mg/m^2 + 225 mg/m^2 paclitaxel, carboplatin AUC 6, 14 patients (different cancers), prior chemotherapy, insufficient therapy to evaluate effectiveness) | Survival (months) (lung cancer [2]; [7]) | Time to Progression (months) (lung cancer [2]; [7]) | Responses (percentage) (lung cancer [2]; TNP-470 20-60 mg/m^2 i.v. up to three times per week + 135-225 mg/m^2 paclitaxel every three weeks, 15 patients (lung cancer only)) | increase in survival over that previously reported for patients treated with paclitaxel alone (lung cancer [2]; TNP-470 + paclitaxel, patients with lung cancer, 14.3 months vs. 8 months) | Responses (percentage) [3] | Responses (percentage) ([4]; TNP-470 60 mg/m^2 + 225 mg/m^2 paclitaxel, carboplatin AUC 5, 3 patients (lung cancer only)) | Survival (months) ([4]; TNP-470 60 mg/m^2 + 225 mg/m^2 paclitaxel, carboplatin AUC 5, 3 patients (lung cancer only), individual values) | tumor response in words ([4]; TNP-470 in combination with paclitaxel and carboplatin (a dose of AUC 5), three patients, all with non-small cell lung cancer) | tumor shrinkage ([4]; TNP-470 with paclitaxel and carboplatin, patients with non-small-cell lung cancer) | Survival (months) (lung cancer [5]; median) | Time to Progression (months) (lung cancer [5]; median) | Responses (percentage) (lung cancer [5]; patients whose tumor shrank by more than fifty percent)
CO[C@@H]1[C@H](OC(=O)NC(=O)CCl)CC[C@]2(CO2)[C@H]1[C@@]1(C)O[C@@H]1CC=C(C)C [TNP-470, 6-O-(N-chloroacetylcarbamoyl) fumagillol] | 20 percentage | tolerated the combined therapy poorly beyond two cycles of therapy | regimen not tolerated | regimen not tolerated | 0 percentage | 14.3 months | 5.4 months | 33 percentage | greater than 70% | 28 percentage | 100 percentage | often, sixteen and more than twenty-two | All three had partial responses | experienced tumor shrinkage |  |  | 
CC(=O)O[C@H]1C(=O)[C@@]2(C)[C@H]([C@H](OC(=O)c3ccccc3)[C@]3(O)C[C@H](OC(=O)[C@H](O)[C@@H](NC(=O)c4ccccc4)c4ccccc4)C(C)=C1C3(C)C)[C@]1(OC(C)=O)CO[C@@H]1C[C@@H]2O [paclitaxel] |  |  |  |  |  |  |  |  |  |  |  |  |  |  | 6-9 months | ∼3 months | 20-30 percentage
